Data on 4 compounds can be found in patent US4123544A, “Acetylsalicylic acid derivatives” (priority 1977, dated 1978).

In brackets after ≈: the same amount, converted by molar mass. Several values for one entry are separate records, joined by “and”; a condition that tells them apart may be missing. Equal values may be shown once. Read-outs that look alike come from different tables or passages of the source.

One series relates to gastric ulcers. To be noted: administered orally; known disadvantage; cited from earlier work.
Another series deals with mice. As to the kind of experiment: acute toxicity on intravenous administration to mice. The class given is in vivo. The text has this: (§1) acute toxicity on intravenous administration to mice
(§2) The acute toxicity of 1-o-acetoxybenzoyl-4-hydroxy-L-proline was investigated by comparison with an injectable aspirin, namely lysine acetylsalicylate. The acetylsalicylic acid content of the two compounds was substantially the same (about 50%).
(§3) (Intravenous administration to mice)
(§4) *x/5: number of dead animals amongst 5 animals tested.

The nature of series [1]: acute toxicity, intraperitoneal administration to mice. To be noted: mouse, in vivo, ip. From the text: The LD50 of the compound according to the invention, when administered intraperitoneally to mice, was about 10g/kg, whilst it was about 3g/kg for lysine acetylsalicylate.
The subject of series [2] is phenylbenzoquinone cramping. Nature of the series: Analgesic activity, phenylbenzoquinone cramping test. It is filed as in vivo. To be noted: oral; for Percentage change in number of cramps versus control / Number of cramps / Percentage inhibition relative to the control animals: 2 hours before test; for Number of cramps: control 449. On the procedure: The analgesic activity of 1-o-acetoxybenzoyl-4-hydroxy-L-proline was studied by means of the phenylbenzoquinone cramping test, in comparison with the same injectable aspirin as that used in Example 2, the two compouns being administered orally 2 hours before the test on groups of 10 animals; a control group of animals to which neither compound was administered was also used.

Series [3] deals with carrageenin-induced plantar oedema. Nature of the series: Anti-inflammatory activity, carrageenin-induced plantar oedema test on rats (intraperitoneal). It is filed as in vivo. To be noted: for percentage variation in volume, (V2 - V1)/V1 × 100, individual rats: 200 mg/kg (expressed as weight of compound); for percentage variation in volume, (V2 - V1)/V1 × 100, individual rats / percentage variation in volume, mean (X): 3 hours; for percentage variation in volume, mean (X): controls 88.22% ± 10.5; for Percentage variation: mean oedema versus controls. As to the method: The anti-inflammatory activity of 1-o-acetoxybenzoyl-4-hydroxy-L-proline was studied by means of the carrageenin-induced plantar oedema test on rats.
[…] of each rat in three groups of 8 to 9 rats was injected with carrageenin at time Ho. The first group was a control group and the second and third groups were test groups. The volume (V1) of the paw was then measured, and the compounds to be tested were administered intraperitoneally. The volume (V2) of the same paw was measured again three hours later.
Background: In the carrageenan paw model, swelling and tenderness develop within hours.

The test system of series [4] is hyperthermia caused by the injection of brewer's yeast. As to the kind of experiment: Antipyretic activity, hyperthermia caused by injection of brewer's yeast. To be noted: intraperitoneal; for central temperature: 200 mg to 400 mg/kg, 37.28 ± 0.052 at Ho. The class given is in vivo, rats. On the procedure:
The antipyretic activity of 1-o-acetoxybenzoyl-4-hydroxyl-L-proline was assessed by the hyperthermia caused by the injection of brewer's yeast 17 hours before the start of the experiment (groups of 8 rats + 1 comparison group without yeast). The first temperature measurement was made at time Ho and the compounds to be tested were then administered intraperitoneally. The central temperature was then checked 1 hour 30 minutes, 3 hours and 4 hours 30 minutes after Ho.

A short description of the next series: Solubility in water. The class given is physicochemical.
A short description of series [5]: acute toxicity on intravenous administration to mice. It is filed as in vivo. To be noted: mouse, in vivo; intravenous, mice.
From the text: as §1, §2, §3, §4

Series [6] in a line: acute toxicity, oral administration to mice. To be noted: mouse, in vivo, orally.
The subject of series [7] is carrageenin-induced oedema. Nature of the series: Anti-inflammatory activity, carrageenin-induced oedema test on rats (intramuscular). It is filed as in vivo. To be noted: for % inhibition / % Variation in the volume of the oedema: 3 hours; for % Variation in the volume of the oedema: comparisons 107.39 ± 5.19. On the procedure:
The anti-inflammatory activity of 1-o-acetoxybenzoyl-L-proline was studied by means of the carrageenin-induced oedema test on rats. In this test, the antiinflammatory activity of the compound according to the invention was compared with that of an injectable aspirin, namely lysine acetylsalicylate.
the compounds were injected intramuscularly, 30 minutes before the carrageenin. The volume of the oedema was measured three hours afterwards.

A further series has as its system rats. Nature of the series: Analgesic activity, Randall-Selitto test on rats. It is filed as in vivo. From the text: The analgesic activity of 1-o-acetoxybenzoyl-L-proline was studied on rats by means of the Randall-Selitto test (Arch. int. Pharmacodyn., 1957, 111, 409, 419).
[8] abbreviates: 50 mg/kg (expressed as weight of compound).
Setting [9] is: 100 mg/kg (expressed as weight of compound).
Where [10] appears, read: 50 mg/kg (expressed as acetylsalicylic acid).
Setting [11] is: 100 mg/kg (expressed as acetylsalicylic acid).

On to `CC(=O)Oc1ccccc1C(=O)O` [acetylsalicylic acid], for which, in the series on gastric ulcers, the ulcerogenic activity result is listed as “ulcerogenic”.

As usually defined, the LD50 is the dose expected to kill half of the subjects tested. The solubility is the concentration that dissolves in the medium under given conditions. A lower solubility goes with a poorly soluble substance. Take `CC(=O)Oc1ccccc1C(=O)N1CC(O)C[C@H]1C(=O)O` (stereo partly drawn) [1-o-acetoxybenzoyl-4-hydroxy-L-proline]: the “toxicity (in words)” value in the series on mice (intravenous, mice) was “substantially non-toxic”. The “number of dead animals amongst 5 animals tested” value with mice (intravenous, mice, 700 mg/kg) is 0/5; in the series with mice (intravenous, mice, 1,500 mg/kg) it was 0/5; in the series on mice (intravenous, mice, 3,000 mg/kg) it was 0/5; with mice (intravenous, mice, 4,000 mg/kg) it was 0/5. Moreover, the immediate symptoms entry in the series with mice (mouse, in vivo, iv) is “practically no symptoms”. The LD50 in series [1] is about 10000 mg/kg. Also, the “Percentage change in number of cramps versus control” value in series [2] (setting [8]) was -12%; in series [2] (setting [9]) it was -57%. The Number of cramps in series [2] (setting [8]) amounted to 396; in series [2] (setting [9]) it was 194. Further, in [2] (phenylbenzoquinone test), the “analgesic activity relative to the injectable aspirin” value was “practically twice that of the injectable aspirin”. Moreover, the “percentage variation in volume, (V2 - V1)/V1 × 100, individual rats” value in series [3] (listed as Compound according to the invention) was 63.6% and 64% and 82.5% and 82.3% and 63.5% and 61.6% and 67.4% and 53.7% and 60.9%. Further, the “percentage variation in volume, mean (X)” value in series [3] (200 mg/kg) came to 66.61 ± 9.7%. Moreover, the “anti-inflammatory activity (in words)” value in [3] (200 mg/kg, versus injectable aspirin) is “very good anti-inflammatory activity, markedly superior to that of the injectable aspirin”. Besides, in series [3] (200 mg/kg), the Percentage variation is listed as -24%. For the same compound, the values for the central temperature in [4] (1 hr 30 mins after Ho), in series [4] (3 hrs after Ho) and in [4] (4 hrs 30 mins after Ho) were 36.12 °C, 36.40 °C and 36.82 °C, respectively. Also, the “antipyretic activity (in words)” value in series [4] (versus injectable aspirin) is reported as “greater than that of the injectable aspirin”. Besides, the solubility in “Solubility in water” (pH = 3) was about 50 mg/mL (≈ 170 mM).

In general, % inhibition refers to the change of the read-out against control, counted positive when it falls. As to `CC(=O)Oc1ccccc1C(=O)O` [Lysine acetylsalicylate, lysine acetylsalicylate, reference compound], the LD50 was about 2000 mg/kg in series [5]; about 3000 mg/kg in series [1] (intraperitoneally, mice, read-out: LD50); 3000 mg/kg in series [6]. Also, the immediate symptoms entry in the series with mice (intravenous, mice) is “pronounced, with depression, ataxia and convulsions occurring”. Also, the “number of dead animals amongst 5 animals tested” value is listed as 0/5 in the series on mice (intravenous, mice, 1,500 mg/kg); 5/5 in the series with mice (intravenous, mice, 2,000 mg/kg); 3/5 with mice (intravenous, mice, 3,000 mg/kg); 5/5 in the series with mice (intravenous, mice, 3,500 mg/kg). The “Percentage inhibition relative to the control animals” value was -14% in series [2] (setting [10]) and -56% in series [2] (setting [11]). For the same compound, the Number of cramps in series [2] (setting [10]) is recorded as 386; in series [2] (setting [11]) it was 196. For the same compound, the “percentage variation in volume, (V2 - V1)/V1 × 100, individual rats” value in series [3] (listed as Injectable aspirin) is 74.4% and 83.3% and 70.7% and 68.3% and 87.5% and 61% and 85% and 64%. In addition, in [3] (200 mg/kg), the “percentage variation in volume, mean (X)” value is listed as 74.29% ± 9.36. Further, the Percentage variation in series [3] (200 mg/kg) is reported as -16%. Besides, the central temperature in [4] (1 hr 30 mins after Ho) turned out to be 36.64 °C; in series [4] (3 hrs after Ho), 36.92 °C; in [4] (4 hrs 30 mins after Ho) it was 36.90 °C. The “% inhibition” value in series [7] (50 mg/kg) was found to be 16.74%; in [7] (100 mg/kg), 27.56%; in series [7] (200 mg/kg), 41.76%. The “% Variation in the volume of the oedema” value in series [7] (50 mg/kg) turned out to be 89.41 ± 9.39%; in series [7] (100 mg/kg) it was 77.79 ± 5.39%; in [7] (200 mg/kg), 62.54 ± 6.83%. The Inhibition % with rats (50 mg/kg, 1 hour) is on record as 72.98%; with rats (50 mg/kg, 2 hours), 60.26%; in the series on rats (50 mg/kg, 4 hours) it was 65.79%; in the series on rats (100 mg/kg, 1 hour), 85.14%; with rats (100 mg/kg, 2 hours) it was 97.44%; in the series on rats (100 mg/kg, 4 hours), 73.68%. Besides, the Inhibition % in the series with rats (200 mg/kg, 1 hour) came to 105.40%; with rats (200 mg/kg, 2 hours), 124.36%; in the series on rats (200 mg/kg, 4 hours) it was 111.84%.

Turning to `CC(=O)Oc1ccccc1C(=O)N1CCC[C@H]1C(=O)O` [1-o-acetoxybenzoyl-L-proline], the “% inhibition” value in [7] (50 mg/kg) was determined as 2.48%; in series [7] (100 mg/kg), 23.97%; in [7] (200 mg/kg), 29.50%. The “% Variation in the volume of the oedema” value in series [7] (50 mg/kg) is recorded as 104.73 ± 7.23%; in [7] (100 mg/kg), 81.65 ± 5.97%; in [7] (200 mg/kg) it was 75.71 ± 4.8%. For the same compound, the “antiinflammatory activity (in words)” value in [7] (dose of 100 mg) is given as “comparable to that of lysine acetylsalicylate used at medium doses”. For the same compound, the Inhibition % is given as 59.49% with rats (50 mg/kg, 1 hour); 67.57% in the series on rats (50 mg/kg, 2 hours); 44.00% with rats (50 mg/kg, 4 hours); 74.68% in the series on rats (100 mg/kg, 1 hour); 89.19% with rats (100 mg/kg, 2 hours); 53.33% in the series on rats (100 mg/kg, 4 hours). Moreover, the Inhibition % is listed as 98.73% with rats (200 mg/kg, 1 hour); 130.98% in the series on rats (200 mg/kg, 2 hours); 104.01% in the series on rats (200 mg/kg, 4 hours). The “analgesic activity (in words)” value with rats (dose of 100 mg) was “comparable to that of lysine acetylsalicylate used at medium doses”. The compound further showed a solubility in “Solubility in water” of 50 mg/mL (≈ 180 mM).
